Measured values published in ChEMBL document CHEMBL3272056, “Synthesis of N-hydroxythiourea” (J Med Chem, 1976).
Activity calls are given as the source filed them. The calls are words filed in the database; no cut-off is given here.

System: L1210
Test: Antitumor activity against mouse L1210 cells at 400 mg/kg, ip
Assay type: functional, organism-based
Parameters: dose 400 mg/kg

Compound: NC(=S)NO
- Activity: inactive
